Data as given in PMC2803041 (Nature, 2009).

Key:
[1] = target: T1, His-PYR1 with GST-HAB1 (Arabidopsis thaliana, UniProt O49686); assay: in vitro reconstitution, radiometric kinase assay; type: biochemical; conditions: HAB1 in place of ABI1
T1 sequence (O49686 1-191): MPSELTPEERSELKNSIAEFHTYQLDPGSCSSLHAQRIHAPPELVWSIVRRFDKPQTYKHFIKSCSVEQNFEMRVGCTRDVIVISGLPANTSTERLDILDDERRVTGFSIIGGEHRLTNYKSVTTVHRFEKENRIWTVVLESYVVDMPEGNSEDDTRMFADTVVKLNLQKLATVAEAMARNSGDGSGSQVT
T1 sequence (Q9CAJ0 1-511 partner): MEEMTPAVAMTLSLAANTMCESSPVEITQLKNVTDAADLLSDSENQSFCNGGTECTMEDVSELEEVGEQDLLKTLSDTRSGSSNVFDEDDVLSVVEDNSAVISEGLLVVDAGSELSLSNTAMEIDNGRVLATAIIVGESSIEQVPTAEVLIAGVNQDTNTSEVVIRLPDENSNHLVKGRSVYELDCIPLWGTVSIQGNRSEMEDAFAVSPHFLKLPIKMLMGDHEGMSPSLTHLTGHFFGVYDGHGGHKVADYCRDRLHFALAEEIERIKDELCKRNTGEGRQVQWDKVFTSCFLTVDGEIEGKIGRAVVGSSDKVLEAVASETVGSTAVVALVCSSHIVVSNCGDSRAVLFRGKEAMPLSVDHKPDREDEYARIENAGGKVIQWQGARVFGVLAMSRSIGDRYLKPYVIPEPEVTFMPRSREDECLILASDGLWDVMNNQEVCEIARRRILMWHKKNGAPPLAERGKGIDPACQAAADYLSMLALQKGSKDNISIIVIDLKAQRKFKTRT

[2] = target: T2, His-PYR1 with GST-ABI1 (Arabidopsis thaliana, UniProt O49686); assay: in vitro reconstitution, radiometric kinase assay; type: biochemical
T2 sequence (O49686 1-191): T1 sequence (O49686 1-191)
T2 sequence (P49597 1-434 partner): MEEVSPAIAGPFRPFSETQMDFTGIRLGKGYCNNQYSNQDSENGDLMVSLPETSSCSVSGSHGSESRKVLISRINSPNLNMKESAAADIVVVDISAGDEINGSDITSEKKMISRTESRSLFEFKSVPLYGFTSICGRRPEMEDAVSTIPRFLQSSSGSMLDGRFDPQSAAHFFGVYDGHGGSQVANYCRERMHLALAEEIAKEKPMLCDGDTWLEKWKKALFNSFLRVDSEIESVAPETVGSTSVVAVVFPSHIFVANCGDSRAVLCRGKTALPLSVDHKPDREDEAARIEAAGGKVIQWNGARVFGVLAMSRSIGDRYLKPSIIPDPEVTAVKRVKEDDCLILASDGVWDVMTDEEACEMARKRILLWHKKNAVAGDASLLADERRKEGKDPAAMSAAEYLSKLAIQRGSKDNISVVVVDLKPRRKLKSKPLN

**Q.** Which results are given for `CC1=CC(=O)CC(C)(C)C1(O)/C=C/C(C)=C\C(=O)O` (stereo in doubt) [(+)-ABA]?
**A.** in vitro reconstitution, radiometric kinase assay [1]: reconstitution was also achieved when the PP2C protein HAB1 was used instead of ABI1; EC50 [2]: 800 nM
